Test results published in patent publication US11498903B2 (BRISTOL-MYERS SQUIBB COMPANY, priority 2017, dated 2022).
Read-outs that look alike come from different tables or passages of the source.

Target: T1, human APJ receptor (Homo sapiens, UniProt P35414)
T1 construct: expressed in transfected cells
T1 sequence (P35414 1-380): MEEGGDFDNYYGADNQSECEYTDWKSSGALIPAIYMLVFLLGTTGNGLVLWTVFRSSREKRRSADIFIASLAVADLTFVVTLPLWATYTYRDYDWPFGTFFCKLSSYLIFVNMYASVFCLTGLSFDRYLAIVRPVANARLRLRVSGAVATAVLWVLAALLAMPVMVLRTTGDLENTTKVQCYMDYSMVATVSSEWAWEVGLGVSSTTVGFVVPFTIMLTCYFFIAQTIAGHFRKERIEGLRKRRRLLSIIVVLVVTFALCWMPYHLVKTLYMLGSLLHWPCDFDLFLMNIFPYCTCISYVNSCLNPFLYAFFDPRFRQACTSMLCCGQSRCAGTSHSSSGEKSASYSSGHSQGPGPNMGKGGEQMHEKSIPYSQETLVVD
Assay: Intracellular cAMP accumulation assay (APJ hcAMP, HTRF)
Format: cell-based
Procedure, shortened: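 Inhibition of 2 μM forskolin-driven cAMP ([…] present) measured by HTRF in 5,000 HEK293 cells/well stably expressing human APJ, 30 min, room temperature. EC50 came from a variable-slope sigmoidal fit; Ymax was relative to (Pyr1)apelin-13 set at 100%.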

[1] = Table 1, HEK293 cells stably expressing human APJ receptor, inhibition of forskolin-mediated cAMP production, read-out: APJ hcAMP EC50
[2] = human APJ, cAMP, potency range class, read-out: APJ cAMP Human EC50

EC50 [1] [nM]	EC50 [2] [nM]	EC50 (Table 3, HEK293 cells stably expressing human APJ receptor, read-out: APJ cAMP Human EC50) [nM]	EC50 (Table 2, HEK293 cells stably expressing human APJ receptor, read-out: APJ cAMP Human EC50) [nM]	Structure (SMILES)
< 10	< 10			CCCC(NC(=O)c1ccc(-c2c(Cl)cccc2-c2nc3ccccc3[nH]2)c(C(=O)O)c1)c1ccc(Cl)cc1F (single isomer, unassigned) [Example 182]
< 10	< 10			CCCC(NC(=O)c1ccc(-c2c(Cl)cccc2-c2nc3ccccc3[nH]2)c(C(=O)O)c1)C1CCCC1 (single isomer, unassigned) [Example 183]
< 10				CCCC(NC(=O)c1ccc(-c2c(Cl)cccc2-c2nc3ccccc3[nH]2)c(C(=O)O)c1)c1ccc(Cl)cc1F (single isomer, unassigned) [Example 184]
< 10	< 10			CCC[C@H](NC(=O)c1ccc(-c2c(Cl)cccc2-c2nc3ccccc3[nH]2)c(C(=O)O)c1)c1cccc(Cl)c1 (single isomer, unassigned) [Example 185]
< 10	< 10			CCCC(NC(=O)c1ccc(-c2c(Cl)cccc2-c2nc3ccccc3[nH]2)c(C(=O)O)c1)c1cncs1 (single isomer, unassigned) [Example 186]
10 to 100	10 to 100			CCCC(NC(=O)c1ccc(-c2c(Cl)cccc2-c2nc3ccccc3[nH]2)c(C(=O)O)c1)c1ccccc1C(F)(F)F (single isomer, unassigned) [Example 189]
10 to 100	10 to 100			CCCC(NC(=O)c1ccc(-c2c(Cl)cccc2-c2nc3ccccc3[nH]2)c(C(=O)O)c1)c1ccccc1OC(F)(F)F (single isomer, unassigned) [Example 191]
10 to 100	10 to 100			CCCC(NC(=O)c1ccc(-c2c(Cl)cccc2-c2nc3ccccc3[nH]2)c(C(=O)O)c1)c1ccncc1 (single isomer, unassigned) [Example 192]
< 10	< 10			CCCC(NC(=O)c1ccc(-c2c(Cl)cccc2-c2nc3cc(OC)c(F)cc3[nH]2)c(C(=O)O)c1)C1CCCC1 (single isomer, unassigned) [Example 195]
< 10	< 10			CCC[C@H](NC(=O)c1ccc(-c2c(Cl)cccc2-c2nc3cc(OC)c(F)cc3[nH]2)c(C(=O)O)c1)c1ccccc1C(F)(F)F (single isomer, unassigned) [Example 196]
< 10	< 10			CCCC(NC(=O)c1ccc(-c2c(Cl)cccc2-c2nc3cc(OC)c(F)cc3[nH]2)c(C(=O)O)c1)c1ccc(Cl)cc1OC (single isomer, unassigned) [Example 197]
< 10	< 10			CCCC(NC(=O)c1ccc(-c2c(Cl)cccc2-c2nc3cc(OC)c(F)cc3[nH]2)c(C(=O)O)c1)C1CCCCC1 (single isomer, unassigned) [Example 198]
< 10	< 10			CCC[C@H](NC(=O)c1ccc(-c2c(Cl)cccc2-c2nc3cc(Cl)c(F)cc3[nH]2)c(C(=O)O)c1)c1ccncc1 (single isomer, unassigned) [Example 199]
< 10	< 10			CCC[C@H](NC(=O)c1ccc(-c2c(Cl)cccc2-c2nc3cc(Cl)c(F)cc3[nH]2)c(C(=O)O)c1)c1ccc(Cl)cc1OC (single isomer, unassigned) [Example 200]
< 10	< 10			CCCC(NC(=O)c1ccc(-c2c(Cl)cccc2-c2nc3cc(Cl)c(F)cc3[nH]2)c(C(=O)O)c1)c1c(C)cc(C)cc1C (single isomer, unassigned) [Example 201]
101 to 500	101 to 500			COC(=O)c1cc(C(=O)N[C@H](c2ccc(Cl)cc2)C2CC2)ccc1-c1c(Cl)cccc1-c1nc2cc(OC)c(F)cc2[nH]1 (single isomer, unassigned) [Example 204]
10 to 100	10 to 100			COc1cc2nc(-c3cccc(Cl)c3-c3ccc(C(=O)N[C@H](c4ccc(Cl)cc4)C4CC4)cc3CO)[nH]c2cc1F (single isomer, unassigned) [Example 205]
< 10	< 10			CCCC(NC(=O)c1ccc(-c2cc(Cl)ccc2-c2nc3ccccc3[nH]2)c(C(=O)O)c1)c1ccc(F)cc1 (single isomer, unassigned) [Example 209, 2′-(1H-1,3-benzodiazol-2-yl)-5′-chloro-4-{[1-(4-fluorophenyl)butyl]carbamoyl}-[1,1′-biphenyl]-2-carboxylic acid]
< 10	< 10			O=C(NC(c1ccccc1)C1CC1)c1ccc(-c2cc(Cl)ccc2-c2nc3ccccc3[nH]2)c(C(=O)O)c1 (single isomer, unassigned) [Example 211, 2′-(1H-1,3-benzodiazol-2-yl)-5′-chloro-4-{[cyclopropyl(phenyl)methyl]carbamoyl}-[1,1′-biphenyl]-2-carboxylic acid]

EC50 [1] [nM]	EC50 [2] [nM]	EC50 (Table 3, HEK293 cells stably expressing human APJ receptor, read-out: APJ cAMP Human EC50) [nM]	EC50 (Table 2, HEK293 cells stably expressing human APJ receptor, read-out: APJ cAMP Human EC50) [nM]	Structure (SMILES)
101 to 500	101 to 500			CCCC(NC(=O)c1ccc(-c2cc(Cl)ccc2-c2nc3ccccc3[nH]2)c(C(=O)O)c1)c1ccc(F)cc1 (single isomer, unassigned) [Example 215, 2′-(1H-1,3-benzodiazol-2-yl)-5′-chloro-4-{[1-(4-fluorophenyl)butyl]carbamoyl}-[1,1′-biphenyl]-2-carboxylic acid]
< 10	< 10			O=C(NC(c1ccccc1)C1CC1)c1ccc(-c2c(Cl)cccc2-c2nc3ccccc3[nH]2)c(C(=O)O)c1 (single isomer, unassigned) [Example 220]
< 10	< 10			CCC[C@H](NC(=O)c1ccc(-c2c(Cl)cccc2-c2nc3ccccc3[nH]2)c(C(=O)O)c1)c1ccccc1OC (single isomer, unassigned) [Example 221]
< 10	< 10			O=C(NC(c1ccc(Cl)cc1)C1CC1)c1ccc(-c2c(Cl)cccc2-c2nc3ccccc3[nH]2)c(C(=O)O)c1 (single isomer, unassigned) [Example 224]
< 10	< 10			O=C(NC(C1CCCCC1)C1CC1)c1ccc(-c2c(Cl)cccc2-c2nc3ccccc3[nH]2)c(C(=O)O)c1 (single isomer, unassigned) [Example 227]
< 10	< 10			CCCC(NC(=O)c1ccc(-c2c(Cl)cccc2-c2nc3ccccc3[nH]2)c(C(=O)O)c1)c1ccc(F)cc1 (single isomer, unassigned) [Example 228]
10 to 100	10 to 100			O=C(N[C@H](c1ccccc1)C1CC1)c1ccc(-c2c(Cl)cccc2-c2nc3ccccc3[nH]2)c(C(=O)O)c1 (single isomer, unassigned) [Example 229]
< 10	< 10			CCC[C@@H](NC(=O)c1ccc(-c2c(Cl)cccc2-c2nc3cc(OC)ccc3[nH]2)c(C(=O)O)c1)C1CCCCC1 (single isomer, unassigned) [Example 231]
< 10	< 10			CCC[C@H](NC(=O)c1ccc(-c2c(Cl)cccc2-c2nc3cc(OC)c(F)cc3[nH]2)c(C(=O)O)c1)c1ccc(F)cc1 (single isomer, unassigned) [Example 233]
< 10	< 10			COc1cc2nc(-c3cccc(Cl)c3-c3ccc(C(=O)N[C@H](c4ccccc4)C4CC4)cc3C(=O)O)[nH]c2cc1F (single isomer, unassigned) [Example 234]
< 10	< 10			COc1cc2nc(-c3cccc(Cl)c3-c3ccc(C(=O)NC(C4CCCCC4)C4CC4)cc3C(=O)O)[nH]c2cc1F (single isomer, unassigned) [Example 235]
< 10	< 10			CCC[C@H](NC(=O)c1ccc(-c2c(Cl)cccc2-c2nc3cc(OC)c(F)cc3[nH]2)c(C(=O)O)c1)c1ccc(Cl)cc1 (single isomer, unassigned) [Example 236]
< 10	< 10			COc1cc2nc(-c3cccc(Cl)c3-c3ccc(C(=O)N[C@H](c4ccc(Cl)cc4)C4CC4)cc3C(=O)O)[nH]c2cc1F (single isomer, unassigned) [Example 237]
< 10	< 10			CCC[C@H](NC(=O)c1ccc(-c2c(Cl)cccc2-c2nc3cc(OC)c(F)cc3[nH]2)c(C(=O)O)c1)c1ccccc1OC (single isomer, unassigned) [Example 238]
< 10	< 10			CCC[C@H](NC(=O)c1ccc(-c2c(Cl)cccc2-c2nc3cc(F)c(Cl)cc3[nH]2)c(C(=O)O)c1)c1ccc(Cl)cc1 (single isomer, unassigned) [Example 239]
< 10	< 10			O=C(N[C@H](c1ccc(Cl)cc1)C1CC1)c1ccc(-c2c(Cl)cccc2-c2nc3cc(F)c(Cl)cc3[nH]2)c(C(=O)O)c1 (single isomer, unassigned) [Example 240]
		10 to 100		CCC[C@H](NC(=O)c1ccc(-c2c(Cl)cccc2-c2nc3cc(OC)c(F)cc3[nH]2)c(CO)c1)c1ccccc1 (stereo in doubt) [Example 131, (S)-2′-chloro-6′-(6-fluoro-5-methoxy-1H-1,3-benzodiazol-2-yl)-2-(hydroxymethyl)-N-(1-phenylbutyl)-[1,1′-biphenyl]-4-carboxamide]
< 10			< 10	CCC[C@@H](NC(=O)c1ccc(-c2cc(Cl)ccc2-c2nc3cc(OC)ccc3[nH]2)c(C(=O)O)c1)c1ccccc1 [Example 1, (R)-5′-Chloro-2′-(5-methoxy-1H-benzo[d]imidazol-2-yl)-4-((1-phenylbutyl)carbamoyl)-[1,1′-biphenyl]-2-carboxylic acid]
